Columns and labels:
Experiment in all cases: Bliss excess, mean over the matrix (fraction); higher = more synergy
[1] = system: LOUCY (T-Lymphoblastic Leukemia)
Summary of the method: (§1)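 Cell lines grown in DMEM/F12 or RPMI with 10% FBS were plated in 1536-well plates and held 24 hours at 37°C, 5% CO2 before 72 hours of exposure to two-drug dose matrices, with DMSO typically at 0.2%. CellTiter-Glo 2.0 luminescence gave viability, which was converted to inhibition. Vehicle wells were set to 0 and blank wells to 1. Combination Emax is the second-highest inhibition in the matrix, and Bliss excess is the observed combination effect minus the expected EA + EB − EA·EB, where EA and EB are the single-agent effects.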

[2] = system: NCI-H1563 (Lung Adenocarcinoma)
Summary of the method: as §1

[3] = system: RERF-LC-KJ (Lung Adenocarcinoma)
Summary of the method: as §1

[4] = system: HSC-3 (Oral Cavity Carcinoma)
Summary of the method: as §1

[5] = system: BALL-1 (B-Lymphoblastic Leukemia)
Summary of the method: as §1

[6] = system: SK-MM-2 (Plasma Cell Myeloma)
Summary of the method: as §1

HuO-3N1 (Osteosarcoma) = system: HuO-3N1 (Osteosarcoma)
Summary of the method: as §1

RT4 (Bladder Carcinoma) = system: RT4 (Bladder Carcinoma)
Summary of the method: as §1

[7] = system: NCI-H1755 (Lung Adenocarcinoma)
Summary of the method: as §1

[8] = system: AsPC-1 (Pancreatic Carcinoma)
Summary of the method: as §1

786-0 (Kidney Carcinoma) = system: 786-0 (Kidney Carcinoma)
Summary of the method: as §1

[9] = system: FLO-1 (Esophageal Adenocarcinoma)
Summary of the method: as §1

[10] = system: PC-14 (Lung Adenocarcinoma)
Summary of the method: as §1

[11] = system: NCI-H810 (Non-Small Cell Lung Carcinoma)
Summary of the method: as §1

[12] = system: Becker (Low Grade Glioma)
Summary of the method: as §1

[13] = system: RPMI-8866 (Chronic Myelogenous Leukemia)
Summary of the method: as §1

[14] = system: KYSE-70 (Esophageal Squamous Cell Carcinoma)
Summary of the method: as §1

[15] = system: NCI-H1623 (Lung Adenocarcinoma)
Summary of the method: as §1

[16] = system: LAMA-84 (Chronic Myelogenous Leukemia)
Summary of the method: as §1

[17] = system: NCI-H1155 (Non-Small Cell Lung Carcinoma)
Summary of the method: as §1

Row | Structure (SMILES) | Bliss excess [1] | Bliss excess [2] | Bliss excess [3] | Bliss excess [4] | Bliss excess [5] | Bliss excess [6] | Bliss excess (HuO-3N1 (Osteosarcoma)) | Bliss excess (RT4 (Bladder Carcinoma)) | Bliss excess [7] | Bliss excess [8] | Bliss excess (786-0 (Kidney Carcinoma)) | Bliss excess [9] | Bliss excess [10] | Bliss excess [11] | Bliss excess [12] | Bliss excess [13] | Bliss excess [14] | Bliss excess [15] | Bliss excess [16] | Bliss excess [17]
1 | CN(CCO)CC[C@H](CSc1ccccc1)Nc1ccc(S(=O)(=O)NC(=O)c2ccc(N3CCC([C@@H](O)c4ccccc4-c4ccc(Cl)cc4)CC3)cc2)cc1S(=O)(=O)C(F)(F)F [AZD4320] + C=CCn1c(=O)c2cnc(Nc3ccc(N4CCN(C)CC4)cc3)nc2n1-c1cccc(C(C)(C)O)n1 [AZD1775] (first compound max 1 µM, partner max 1 µM) | 0.002 | -0.0024 | -0.0076 | -0.0083 | 0.0065 | 0.0011 | -0.0135 | 0.0755 | -0.0201 | 0.047 | -0.0685 | 0.0293 | 0.0069 | 0.0105 | 0.0046 | 0.0402 | -0.0011 | 0.0318 | 0.083 | 0.0675
2 | CN(CCO)CC[C@H](CSc1ccccc1)Nc1ccc(S(=O)(=O)NC(=O)c2ccc(N3CCC([C@@H](O)c4ccccc4-c4ccc(Cl)cc4)CC3)cc2)cc1S(=O)(=O)C(F)(F)F [AZD4320] + CCN(CCO)CCCOc1ccc2c(Nc3cc(CC(=O)Nc4cccc(F)c4)[nH]n3)ncnc2c1 [AZD2811] (first compound max 1 µM, 7x7, partner max 1 µM) | -0.0011 | -0.0002 | -0.028 | 0.0257 | 0.14 | -0.0113 | -0.0051 | 0.163 | -0.0024 | -0.0294 | -0.0374 | 0.0895 | 0.0099 | 0.0178 | -0.027 | 0.234 | 0.0483 | -0.0045 | 0.0319 | 0.127
3 | CN(CCO)CC[C@H](CSc1ccccc1)Nc1ccc(S(=O)(=O)NC(=O)c2ccc(N3CCC([C@@H](O)c4ccccc4-c4ccc(Cl)cc4)CC3)cc2)cc1S(=O)(=O)C(F)(F)F [AZD4320] + CN(C)CCCOc1ccc(-c2ccc3ncc4c(c3c2)n(C2CCOCC2)c(=O)n4C)cn1 [AZD0156] (first compound max 1 µM, 7x7, partner max 1 µM) | -0.006 | -0.0496 | -0.0413 | -0.0532 | -0.0185 | 0.0468 | -0.0021 | -0.0057 | -0.0164 | -0.0506 | -0.0503 | 0.0007 | -0.019 | -0.0328 | -0.035 | -0.0756 | -0.0124 | -0.071 | -0.0089 | -0.0105
4 | CN(CCO)CC[C@H](CSc1ccccc1)Nc1ccc(S(=O)(=O)NC(=O)c2ccc(N3CCC([C@@H](O)c4ccccc4-c4ccc(Cl)cc4)CC3)cc2)cc1S(=O)(=O)C(F)(F)F [AZD4320] + C[C@@H]1COCCN1C2=NC(=NC(=C2)C3(CC3)[S@](=N)(=O)C)C4=C5C=CNC5=NC=C4 [AZD6738] (first compound max 1 µM, 7x7, partner max 10 µM) | -0.0092 | 0.0051 | -0.0377 | -0.054 | 0.0096 | -0.0126 | 0.0154 | 0.0064 | -0.0214 | -0.109 | -0.0263 | -0.0574 | -0.0133 | -0.0762 | -0.0186 | 0.0527 | -0.0096 | -0.0101 | -0.0093 | 0.0351
5 | CN(CCO)CC[C@H](CSc1ccccc1)Nc1ccc(S(=O)(=O)NC(=O)c2ccc(N3CCC([C@@H](O)c4ccccc4-c4ccc(Cl)cc4)CC3)cc2)cc1S(=O)(=O)C(F)(F)F [AZD4320] + C[C@@H](Nc1cc(F)cc(F)c1)c1cc(C(=O)N(C)C)cc2c(=O)cc(N3CCOCC3)oc12 [AZD8186] (first compound max 1 µM, 7x7, partner max 3 µM) | 0.0111 | 0.0295 | 0.0703 | 0.0482 | 0.0506 | 0.0197 | 0.0557 | 0.032 | 0.012 | -0.0141 | -0.0081 | -0.0261 | 0.0228 | -0.0461 | 0.0186 | 0.0244 | 0.0092 | 0.0105 | 0.0355 | 0.075
6 | CN(CCO)CC[C@H](CSc1ccccc1)Nc1ccc(S(=O)(=O)NC(=O)c2ccc(N3CCC([C@@H](O)c4ccccc4-c4ccc(Cl)cc4)CC3)cc2)cc1S(=O)(=O)C(F)(F)F [AZD4320] + Cc1cc2ncnn2cc1Nc1ncc2c(n1)n(C1CCOCC1)c(=O)n2C [AZD7648] (first compound max 1 µM, 7x7, partner max 10 µM) | 0.0365 | -0.0322 | -0.0314 | -0.0051 | 0.0087 | -0.0268 | 0.0015 | -0.004 | -0.0279 | -0.0575 | -0.0428 | -0.0358 | -0.0188 | 0.004 | -0.0211 | 0.0654 | -0.0225 | -0.0206 | -0.0161 | 0.017
7 | CN(CCO)CC[C@H](CSc1ccccc1)Nc1ccc(S(=O)(=O)NC(=O)c2ccc(N3CCC([C@@H](O)c4ccccc4-c4ccc(Cl)cc4)CC3)cc2)cc1S(=O)(=O)C(F)(F)F [AZD4320] + Cn1cnc2c(F)c(Nc3ccc(Br)cc3Cl)c(C(=O)NOCCO)cc21 [Selumetinib] (first compound max 1 µM, 7x7, partner max 3 µM) | 0.0255 | 0.045 | 0.0144 | 0.0228 | -0.0246 | 0.0514 | -0.0194 | 0.112 | 0.0081 | 0.0314 | -0.0187 | 0.0109 | 0.0379 | -0.0577 | 0.0084 | 0.0349 | 0.0554 | 0.162 | 0.0207 | 0.0385
8 | COc1nnc2ccc(N3CCC(c4ccc(OCCN5CCN(C)C(=O)[C@H]5C)cc4)CC3)nn12 [AZD5153] + C=CCn1c(=O)c2cnc(Nc3ccc(N4CCN(C)CC4)cc3)nc2n1-c1cccc(C(C)(C)O)n1 [AZD1775] (first compound max 1 µM, partner max 1 µM) | -0.0527 | 0.0474 | -0.0224 | -0.0396 | -0.0234 | -0.0484 | -0.0584 | -0.0064 | -0.0088 | 0.0167 | -0.0163 | 0.0001 | -0.0488 | -0.0578 | -0.0421 | -0.0864 | -0.0519 | -0.0101 | -0.0311 | 0.0523
9 | COc1nnc2ccc(N3CCC(c4ccc(OCCN5CCN(C)C(=O)[C@H]5C)cc4)CC3)nn12 [AZD5153] + CC1(C)CCC(CN2CCN(c3ccc(C(=O)NS(=O)(=O)c4ccc(NCC5CCOCC5)c([N+](=O)[O-])c4)c(Oc4cnc5[nH]ccc5c4)c3)CC2)=C(c2ccc(Cl)cc2)C1 [Venetoclax] (first compound max 1 µM, 7x7, partner max 1 µM) | 0.0241 | -0.0496 | -0.0146 | -0.0846 | -0.0141 | -0.0111 | -0.0576 | -0.019 | -0.0416 | -0.0807 | -0.0762 | -0.005 | -0.03 | -0.0474 | -0.0487 | -0.0979 | -0.0793 | -0.0448 | -0.0361 | 0.0223
10 | COc1nnc2ccc(N3CCC(c4ccc(OCCN5CCN(C)C(=O)[C@H]5C)cc4)CC3)nn12 [AZD5153] + CCN(CCO)CCCOc1ccc2c(Nc3cc(CC(=O)Nc4cccc(F)c4)[nH]n3)ncnc2c1 [AZD2811] (first compound max 1 µM, 7x7, partner max 1 µM) | 0.0305 | -0.0508 | -0.075 | -0.0509 | 0.0056 | -0.0366 | -0.0705 | -0.0391 | -0.0058 | -0.0427 | -0.0274 | -0.0165 | -0.0017 | -0.0068 | 0.0134 | 0.0254 | -0.0265 | -0.0117 | 0.0006 | 0.0177
11 | COc1nnc2ccc(N3CCC(c4ccc(OCCN5CCN(C)C(=O)[C@H]5C)cc4)CC3)nn12 [AZD5153] + C[C@@H]1COCCN1C2=NC(=NC(=C2)C3(CC3)[S@](=N)(=O)C)C4=C5C=CNC5=NC=C4 [AZD6738] (first compound max 1 µM, 7x7, partner max 10 µM) | -0.0232 | 0.0203 | 0.0393 | -0.0181 | 0.0119 | -0.0831 | 0.0085 | 0.0449 | 0.0198 | 0.0778 | 0.0479 | 0.0257 | 0.0294 | -0.0236 | 0.0137 | -0.0364 | -0.0358 | -0.0247 | 0.0202 | 0.0406
12 | COc1nnc2ccc(N3CCC(c4ccc(OCCN5CCN(C)C(=O)[C@H]5C)cc4)CC3)nn12 [AZD5153] + Cc1c2c(nn1C)CSCc1cc(n(C)n1)CSc1cc(c3ccccc3c1)OCCCc1c(C(=O)O)n(C)c3c-2c(Cl)ccc13 [AZD5991] (first compound max 1 µM, 7x7, partner max 1 µM) | 0.0187 | 0.0341 | 0.006 | -0.0069 | -0.0409 | -0.0156 | -0.0118 | 0.0009 | -0.0785 | -0.0639 | -0.0166 | -0.0352 | -0.0145 | 0.0448 | -0.0815 | -0.0361 | -0.0652 | 0.049 | 0.005 | -0.0091
13 | COc1nnc2ccc(N3CCC(c4ccc(OCCN5CCN(C)C(=O)[C@H]5C)cc4)CC3)nn12 [AZD5153] + Cn1cnc2c(F)c(Nc3ccc(Br)cc3Cl)c(C(=O)NOCCO)cc21 [Selumetinib] (first compound max 1 µM, 7x7, partner max 10 µM) | 0.0484 | -0.085 | -0.113 | -0.0211 | -0.0274 | -0.004 | -0.0026 | 0.0073 | 0.0053 | -0.0238 | 0.0143 | 0.0012 | 0.007 | -0.0224 | 0.0472 | -0.0233 | 0.0097 | 0.0294 | 0.0757 | -0.035

From the supplement of paper PMC11061612
